What follows are compounds tested against T1, HIF-PH2 (Homo sapiens, UniProt Q9GZT9) (assay: HIF-PH assay (14CO2 capture, peptide-dependent turnover)). Settings: compound concentration 22.22 μM.
T1 construct: made in house; host or cells: insect Hi5 cells
Type: biochemical
From the text: Ketoglutaric acid α-[1-^14C]-sodium salt, alpha-ketoglutaric acid sodium salt, and HPLC purified peptide may be obtained from commercial sources, e.g., Perkin-Elmer (Wellesley Mass.), Sigma-Aldrich, and SynPep Corp. (Dublin Calif.), respectively. Peptides for use in the assay may be fragments of HIFα as described above or as disclosed in International Publication WO 2005/118836, incorporated by reference herein. For example, a HIF peptide for use in the HIF-PH assay is [methoxycoumarin]-DLDLEALAPYIPADDDFQL-amide. HIF-PH, e.g., HIF-PH2 (EGLN1), can be expressed in, e.g., insect Hi5 cells, and partially purified, e.g., through a SP ion exchange chromatography column. Enzyme activity is determined by capturing ^14CO2 using an assay described by Kivirikko and Myllyla (1982, Methods Enzymol. 82:245-304). Assay reactions contain 50 mM HEPES (pH 7.4), 100 μM α-ketoglutaric acid sodium salt, 0.30 μCi/mL ketoglutaric acid α-[1-^14C]-sodium salt, 40 μM FeSO4, 1 mM ascorbate, 1541.8 units/mL Catalase, with or without 50 μM peptide substrate and various concentrations of compound of the invention. Reactions are initiated by addition of HIF-PH enzyme.
The peptide-dependent percent turnover is calculated by subtracting percent turnover in the absence of peptide from percent turnover in the presence of substrate peptide. Percent inhibition and IC50 are calculated using peptide-dependent percent turnover at given inhibitor concentrations. Calculation of IC50 values for each inhibitor is conducted using GraFit software (Erithacus Software Ltd., Surrey UK).
Representative compounds of the invention were analyzed using the HIF-PH assay described above. Table I below presents enzyme inhibition data for exemplary compounds against HIF-PH2, a representative HIF prolyl hydroxylase enzyme. By inhibiting HIF prolyl hydroxylase enzymes, compounds of the invention stabilize HIFα, which then combines with HIFβ to form an active transcription factor that increases expression of various genes involved in numerous beneficial cellular processes.

T1 sequence (Q9GZT9 whole entry, species assumed): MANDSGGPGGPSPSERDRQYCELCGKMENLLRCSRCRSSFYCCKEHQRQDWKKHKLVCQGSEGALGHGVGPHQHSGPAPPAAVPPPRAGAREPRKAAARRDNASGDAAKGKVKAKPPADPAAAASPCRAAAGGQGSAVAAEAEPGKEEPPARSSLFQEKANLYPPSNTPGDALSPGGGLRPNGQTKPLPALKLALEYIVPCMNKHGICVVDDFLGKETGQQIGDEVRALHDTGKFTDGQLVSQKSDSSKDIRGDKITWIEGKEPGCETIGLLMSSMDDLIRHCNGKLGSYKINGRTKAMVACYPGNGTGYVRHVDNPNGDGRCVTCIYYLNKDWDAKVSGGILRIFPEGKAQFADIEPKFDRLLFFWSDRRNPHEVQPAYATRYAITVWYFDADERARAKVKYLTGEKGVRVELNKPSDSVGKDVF

Row | Compound | inhibition at 22.22 µM [%]
1 | O=C(O)CNC(=O)c1nc(-c2cccc3ccccc23)c2snc(-c3ccc(Cl)cc3)c2c1O [Example 24, {[3-(4-Chloro-phenyl)-4-hydroxy-7-naphthalen-1-yl-isothiazolo[5,4-c]pyridine-5-carbonyl]-amino}-acetic acid] | 96
2 | N#Cc1nc(C(=O)NCC(=O)O)c(O)c2c(-c3ccc(F)cc3)nsc12 [Example 8, {[7-Cyano-3-(4-fluoro-phenyl)-4-hydroxy-isothiazolo[5,4-c]pyridine-5-carbonyl]-amino}-acetic acid] | 98.3
3 | Cc1nsc2c(-c3cnccn3)nc(C(=O)NCC(=O)O)c(O)c12 [Example 40, [(4-Hydroxy-3-methyl-7-pyrazin-2-yl-isothiazolo[5,4-c]pyridine-5-carbonyl)-amino]-acetic acid] | 70
4 | Cc1nsc2c(O)c(C(=O)NCC(=O)O)nc(-c3ccccc3)c12 [Example 31, [(7-Hydroxy-3-methyl-4-phenyl-isothiazolo[4,5-c]pyridine-6-carbonyl)-amino]-acetic acid] | 98

Same assay, conditions: compound concentration 200 μM

Row | Compound | inhibition at 200 µM [%]
5 | O=C(O)CNC(=O)c1nc(C(F)(F)F)c2snc(-c3ccc(Cl)cc3)c2c1O [Example 26, {[3-(4-Chloro-phenyl)-4-hydroxy-7-trifluoromethyl-isothiazolo[5,4-c]pyridine-5-carbonyl]-amino}-acetic acid] | 100
6 | Cc1nsc2c(O)c(C(=O)NCC(=O)O)ncc12 [Example 32, [(7-Hydroxy-3-methyl-isothiazolo[4,5-c]pyridine-6-carbonyl)-amino]-acetic acid] | 100
7 | O=C(O)CNC(=O)c1nc(-c2ccncc2)c2snc(-c3ccccc3)c2c1O [Example 5, [(4-Hydroxy-3-phenyl-7-pyridin-4-yl-isothiazolo[5,4-c]pyridine-5-carbonyl)-amino]-acetic acid] | 97.1
8 | C#Cc1nc(C(=O)NCC(=O)O)c(O)c2c(-c3ccc(F)cc3)nsc12 [Example 6, {[7-Ethynyl-3-(4-fluoro-phenyl)-4-hydroxy-isothiazolo[5,4-c]pyridine-5-carbonyl]-amino}-acetic acid] | 98.3
9 | O=C(O)CNC(=O)c1nc(-c2ccccn2)c2snc(-c3ccccc3)c2c1O [Example 4, [(4-Hydroxy-3-phenyl-7-pyridin-2-yl-isothiazolo[5,4-c]pyridine-5-carbonyl)-amino]-acetic acid] | 99.1
10 | Cc1nsc2c(-c3ccccn3)nc(C(=O)NCC(=O)O)c(O)c12 [Example 38, [(4-Hydroxy-3-methyl-7-pyridin-2-yl-isothiazolo[5,4-c]pyridine-5-carbonyl)-amino]-acetic acid] | 74
11 | O=C(O)CNC(=O)c1nc(-c2ccccc2)c2snc(-c3ccc(Cl)cc3)c2c1O [Example 17, {[3-(4-Chloro-phenyl)-4-hydroxy-7-phenyl-isothiazolo[5,4-c]pyridine-5-carbonyl]-amino}-acetic acid] | 98.7
12 | O=C(O)CNC(=O)c1nc(-c2ccc(F)cc2)c2snc(-c3ccccc3)c2c1O [Example 1, {[7-(4-Fluoro-phenyl)-4-hydroxy-3-phenyl-isothiazolo[5,4-c]pyridine-5-carbonyl]-amino}-acetic acid] | 98
13 | CCc1nc(C(=O)NCC(=O)O)c(O)c2c(C)nsc12 [Example 46, [(7-Ethyl-4-hydroxy-3-methyl-isothiazolo[5,4-c]pyridine-5-carbonyl)-amino]-acetic acid] | 99
14 | O=C(O)CNC(=O)c1ncc2snc(-c3ccc(Cl)cc3)c2c1O [Example 16, {[3-(4-Chloro-phenyl)-4-hydroxy-isothiazolo[5,4-c]pyridine-5-carbonyl]-amino}-acetic acid] | 99.9
15 | O=C(O)CNC(=O)c1ncc2snc(-c3ccccc3F)c2c1O [Example 33, {[3-(2-Fluoro-phenyl)-4-hydroxy-isothiazolo[5,4-c]pyridine-5-carbonyl]-amino}-acetic acid] | 100

Reference: patent US9387200B2, “Isothiazole-pyridine derivatives as modulators of HIF (hypoxia inducible factor) activity” (FibroGen, Inc., priority 2008, dated 2016)
